Results on four compounds are retold here after US6846843B2, “β-thioamino acids” (Gruenenthal GmbH, priority 2000, dated 2005).

SMILES strings stand for the structures. Like-named read-outs stand apart in the source and are kept apart here.

The target in one test is gabapentin binding site. The test can be described thus: Gabapentin binding assay (displacement of gabapentin from its binding site). As to conditions: displacement of gabapentin, read-out: Affinity (IC50). As for the experimental part:
Gabapentin is used in the binding assay in order to determine the binding and affinities of the selected compounds. The affinity of the compounds according to the invention is measured via the displacement of gabapentin from its binding site.

The next test relates to cold-induced allodynia. The test can be described thus: Bennett model, neuropathic pain in rats (cold-induced allodynia). The format is in vivo. As to conditions: rat; for AUD: over 1 hour, *** p≦0.001. As for the experimental part:
The effectiveness in neuropathic pain was investigated using the Bennett model (Chronic Constriction Injury: Bennett and Xie, 1988, Pain 33: 87-107).
The right sciatic nerve of Sprague-Dawley rats weighing 140-160 g anaesthetised with nembutal was loosely ligatured in four places. The animals develop an hypersensitivity in the paw inervated by the damaged nerve, which after a one-week healing phase is quantified over about four weeks by means of a 4° C. cold metal plate (cold-induced allodynia). The animals are observed for a period of 2 minutes on this plate and the number of contractive reactions of the damaged paw is measured. The effect of the substance is determined at four times over a period of 1 hour (15, 30, 45 and 60 minutes after application) with reference to the baseline value before application of the substance and the resulting area under the curve (AUD) as well as the inhibition of the cold-induced allodynia at the individual measuring points is expressed as a percentage inhibition with respect to the vehicle control (AUD) and to the starting value (individual measurement points). The group size is n=10, and the significance of an anti-allodynic action is determined on the basis of the AUD values over a paired Test (* 0.05≧p>0.01; ** 0.01≧p>0.001; *** p≦0.001; Armitage and Berry, 1987, Stat. Methods in Medical Research, London: Blackwell Scientific Publications).

Test [1] deals with phenylquinone-induced writhing reactions. The test can be described thus: Phenylquinone-induced writhing test in mice. The format is in vivo. As to conditions: iv, read-out: Writhing Mouse i.v. ED50. As for the experimental part: The antinociceptive effectiveness of the compounds according to the invention was investigated in mice using the phenylquinone-induced writhing test as modified by I. C. Hendershot and J. Forsaith, J. Pharmacol. Exp. Ther. 125, 237-240 (1959)). Male NMRI mice weighing 25-30 g were used for this purpose. Groups of 10 animals per substance dose were given intraperitoneally 10 minutes after intravenous administration of a compound according to the invention, 0.3 ml/mouse of a 0.02% aqueous solution of phenylquinone (phenylbenzoquinone, from Sigma, Deisenhofen; solution prepared by addition of 5% of ethanol and storage in a water bath at 45° C.). The animals were placed individually in observation cages. The number of pain-induced stretching movements (so-called writhing reactions=contortion of the body accompanied by stretching of the rear extremities) 5-20 minutes after administration of the phenylquinone were counted using a push-button counter. Animals that had received physiological saline solution i.v. and phenylquinone […]. served as controls.
All substances were tested in the standard dose of 10 mg/kg.

In test [2] the test system is formalin-induced nociception. The test can be described thus: Formalin test on mice (second phase). The format is in vivo. As to conditions: read-out: Mouse Formalin Test ED50. As for the experimental part:
The investigations to determine the antinociceptive action of the compounds according to the invention were carried out by the formalin test on male albino mice (NMRI, 25-35 g, Iffa Credo, Belgium).
In the formalin test the first (early) phase (0-15 minutes after the formalin injection) and the second (late) phase (15-60 minutes after the formalin injection) differ (D. Dubuisson et al., Pain, Vol. 4, pp. 161-174 (1977)). The early phase, being a direct reaction to the formalin injection, constitutes a model for acute pain, whereas the late phase is regarded as a model for persistent (chronic or inflammatory) pain (T. J. Coderre et al., Pain, Vol. 52, pp. 259-285 (1993)).
The compounds according to the invention were investigated in the second phase of the formalin test in order to obtain information on the effects of substances in chronic/inflammatory pain.
By means of a single subcutaneous formalin injection (20 μl, 1% aqueous solution) into the dorsal side of the right-hand rear paw, a nociceptive reaction was induced in unconstrained experimental animals, manifested in a noticeable licking and biting of the affected paw. The nociceptive behavior during the investigation period in the second (late) phase of the formalin test was continuously monitored by observing the animals. The pain reaction was quantified by totalling the time in seconds during which the animals continued to lick and bite the affected paw during the investigation period. After injecting substances that have an antinociceptive effect in the formalin test, the aforedescribed behavior pattern of the animals is reduced or possibly even eliminated. Corresponding to the substance tests, in which the animals had been injected with the test substance before formalin, the control animals were injected with a vehicle, i.e. solvent (e.g. 0.9% NaCl solution) before the formalin injection. The behavior of the animals after administration of the substance (n=10 per substance dose) was compared with a control group (n=10).
Based on the quantification of the pain reaction, the effect of the substance in the formalin test was determined as the change in the control in percentage terms. The ED50 calculations were carried out by means of regression analysis. The application time before the formalin injection (intraperitoneally: 15 minutes, intravenously: 5 minutes) was chosen depending on the type of application of the compounds according to the invention.

For test [3], the system named is mechanical hyperalgesia after paw incision. In words: Mechanical hyperalgesia after paw incision in rats (paw incision model). The following applies: rat, 464 mg/kg i.p. The format is in vivo. As for the experimental part:
In this model the wound pain in the tissue surrounding an incision in the plantar side of a rear rat paw is investigated as a model of post-operative pain (Brennan, T. J., Vandermeulen, E. P., Gebhart, G. F., Pain (1996) 493-501). For this purpose the retraction latency after punctiform mechanical stimulation with an electronic von Frey filament is determined. After the paw incision a mechanical hyperalgesia develops, which remains stable over several days.
Male Sprague Dawley rats (bodyweight 200-300 g) are used. Under halothane anaesthesia a 1 cm-long incision is made starting 0.5 cm from the proximal end of the heel, through the skin, fascia and plantaris muscle, and closed with two stitches.
The retraction threshold of the paw expressed in grams after punctiform mechanical stimulation is determined using an electronic von Frey filament (Digital Transducer Indicator Model 1601C, IITC Inc.). For this purpose the retraction threshold per measurement point is measured five times at intervals of 30 seconds and the individual median value is determined, on the basis of which the mean value of the animal cohort is in turn calculated. […]
In order to investigate primary hyperalgesia, the retraction threshold is determined on the ipsilateral paw in the immediate vicinity of the incision as well as in the same position on the contralateral paw. […]

[4] abbreviates: mouse, i.v., 10 minutes before phenylquinone.

One may read the IC50 as the concentration that inhibits the measured activity by half. A word on the ED50: it is the dose that gives a 50% effect, or the effect in half of the subjects. `CCCCCC(C)(S)C(N)C(=O)O.Cl` (racemic) [Compound 4, rac-2-amino-3-mercapto-3-methyloctanoic acid hydrochloride]: at gabapentin binding site (hydrochloride), the IC50 turned out to be 186 nM. The results for the “Change Compared to Control (%)” value in the test on cold-induced allodynia (46.4 mg/kg i.p.) and with cold-induced allodynia (100 mg/kg i.p.) were 32.5% and 66.9%, respectively. The results for the AUD in the test with cold-induced allodynia (46.4 mg/kg i.p.) and with cold-induced allodynia (100 mg/kg i.p.) were 1893.1 ± 284.6*** and 3603.1 ± 228.1***, respectively. The ED50 in test [1] (setting [4]) came to 12 mg/kg; in test [2] (iv, mouse, i.v., second phase), 67 mg/kg.
Turning to `CCCCCCCC(C)(S)C(N)C(=O)O.Cl` (racemic) [Compound 6, rac-2-amino-3-mercapto-3-methyldecanoic acid hydrochloride], the “% MPE (Maximal Possible Effect)” value in test [3] is 27% MPE (464 mg/kg) i.p. Also, the IC50 on gabapentin binding site (hydrochloride) was determined as 199 nM. Moreover, the ED50 is 35 mg/kg in test [1] (setting [4]) and 66 mg/kg in test [2] (iv, mouse, i.v., second phase).
On to `Cl.NC(C(=O)O)C1(S)CCCC1` (racemic) [Compound 8, rac-amino-(1-mercaptocyclopentyl)acetic acid hydrochloride], for which the IC50 on gabapentin binding site was 151 nM. For the same compound, the ED50 in test [1] (setting [4]) turned out to be 70 mg/kg; in test [2] (iv, mouse, i.v., second phase), 79 mg/kg.
`NCC1(CC(=O)O)CCCCC1` [Gabapentin, gabapentin, reference compound]: the “Change Compared to Control (%)” value in the test on cold-induced allodynia (100 mg/kg i.p.) is given as 34.5%; with cold-induced allodynia (464 mg/kg i.p.) it was 47.3%. The AUD in the test on cold-induced allodynia (100 mg/kg i.p.) is given as 1940.3 ± 139.7***; in the test on cold-induced allodynia (464 mg/kg i.p.) it was 2577.8 ± 147.4***. Moreover, the ED50 is 38 mg/kg in test [1] (Mus musculus) and 79 mg/kg in test [2] (Mus musculus).
